Values of other authors in patent US20070281881A1, “Methods And Compositions Comprising Non-Peptide Small Molecules That Solubilize Beta Amyloid Peptide Fiber” (priority 2004, published 2007).

Key:
Aβ = Aβ (Homo sapiens, UniProt P05067); settings: result in words, from cited studies
[1] = result in words, from cited studies

Sequence of Aβ (P05067 672-713 limits assumed): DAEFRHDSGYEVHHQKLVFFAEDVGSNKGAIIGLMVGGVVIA

| SMILES | binding to Aβ and effect on Aβ aggregation (Aβ) | crossing of the blood brain barrier [1] |
| --- | --- | --- |
| COc1ccc2[nH]cc(CCNC(C)=O)c2c1 [Melatonin] | binds and slows down Aβ aggregation | easily crosses the blood brain barrier |
| CN1CCCC1c1cccnc1 (stereo not drawn) [nicotine] | binds and slows down Aβ aggregation |  |
